According to US20220289715A1, “PESTICIDALLY ACTIVE PYRAZINE-AMIDE COMPOUNDS” (priority 2019, published 2022):

Legend:
Assay type in all cases: in vivo
[1] = test system: Plutella xylostella (Diamondback Moth); test: Example B9: Plutella xylostella, artificial diet, 96-well; settings: 216 h, application rate of 500 ppm, eggs/L1 larvae, 9 days after infestation
Experimental: Example B9: Plutella xylostella (Diamondback Moth)
96-well microtiter plates containing artificial diet were treated with aqueous test solutions, prepared from 10,000 ppm DMSO stock solutions, by a liquid handling robot. After drying, eggs (˜30 per well) were infested onto a netted lid which was suspended above the diet. The eggs hatch and L1 larvae move down to the diet. The samples were assessed for mortality 9 days after infestation.
The following compounds gave an effect of at least 80% mortality at an application rate of 500 ppm: […]

[2] = test system: Chilo suppressalis (Striped Rice Stemborer); test: Example B3: Chilo suppressalis, artificial diet; settings: 144 h, application rate of 200 ppm, L2 larvae, 6 days after infestation, read-out: control in at least one of the three categories (mortality, anti-feedant effect, or growth inhibition)
Experimental: Example B3: Chilo suppressalis (Striped Rice Stemborer)
24-well microtiter plates with artificial diet were treated with aqueous test solutions prepared from 10,000 ppm DMSO stock solutions by pipetting. After drying, the plates were infested with L2 larvae (6-8 per well). The samples were assessed for mortality, anti-feeding effect, and growth inhibition in comparison to untreated samples 6 days after infestation. Control of Chilo suppressalis by a test sample is given when at least one of the categories mortality, anti-feedant effect, and growth inhibition is higher than the untreated sample.

[3] = test system: Plutella xylostella (Diamond Back Moth); test: Example B4: Plutella xylostella, artificial diet, 24-well; settings: 192 h, application rate of 200 ppm, eggs, 8 days after infestation, read-out: control in at least one of the two categories (mortality or growth inhibition)
Experimental: Example B4: Plutella xylostella (Diamond Back Moth)
24-well microtiter plates with artificial diet were treated with aqueous test solutions prepared from 10,000 ppm DMSO stock solutions by pipetting. After drying, Plutella eggs were pipetted through a plastic stencil onto a gel blotting paper and the plate was closed with it. The samples were assessed for mortality and growth inhibition in comparison to untreated samples 8 days after infestation.
(§1) The following compounds gave an effect of at least 80% control in at least one of the two categories (mortality or growth inhibition) at an application rate of 200 ppm: […]

[4] = test system: Diabrotica balteata (Corn Root Worm); test: Example B1: Diabrotica balteata, spray on maize sprouts; settings: 96 h, application rate of 200 ppm, L2 larvae, 4 days after infestation, read-out: control in at least one of the two categories (mortality or growth inhibition)
Experimental: Example B1: Diabrotica balteata (Corn Root Worm)
Maize sprouts placed onto an agar layer in 24-well microtiter plates were treated with aqueous test solutions prepared from 10,000 ppm DMSO stock solutions by spraying. After drying, the plates were infested with L2 larvae (6 to 10 per well). The samples were assessed for mortality and growth inhibition in comparison to untreated samples 4 days after infestation.
as §1

[5] = test system: Spodoptera littoralis (Egyptian Cotton Leaf Worm); test: Example B6: Spodoptera littoralis, spray on cotton leaf discs; settings: foliar, 72 h, application rate of 200 ppm, L1 larvae, 3 days after infestation, read-out: control in at least one of the three categories (mortality, anti-feedant effect, or growth inhibition)
Experimental: Example B6: Spodoptera littoralis (Egyptian Cotton Leaf Worm)
Cotton leaf discs were placed onto agar in 24-well microtiter plates and sprayed with aqueous test solutions prepared from 10,000 ppm DMSO stock solutions. After drying the leaf discs were infested with five L1 larvae. The samples were assessed for mortality, anti-feeding effect, and growth inhibition in comparison to untreated samples 3 days after infestation. Control of Spodoptera littoralis by a test sample is given when at least one of the categories mortality, anti-feedant effect, and growth inhibition is higher than the untreated sample.

Cc1cnn(-c2nccnc2C(C)NC(=O)c2cc(C(F)(F)F)cc(C(F)(F)F)c2)n1 (stereo not drawn) [Compound P1, N-[1-[3-(4-methyltriazol-2-yl)pyrazin-2-yl]ethyl]-3,5-bis(trifluoromethyl)benzamide]
≥ 80%: mortality at 500 ppm [1] | percent control (mortality, anti-feedant effect or growth inhibition) at 200 ppm [2] | percent control (mortality or growth inhibition) at 200 ppm [3]

CC(NC(=O)c1cc(C2CC2(F)F)cc(C(F)(F)F)c1)c1nccnc1-n1nccn1 (stereo not drawn) [Compound P7, 3-(2,2-difluorocyclopropyl)-N-[1-[3-(triazol-2-yl)pyrazin-2-yl]ethyl]-5-(trifluoromethyl)benzamide]
≥ 80%: mortality at 500 ppm [1] | percent control (mortality or growth inhibition) at 200 ppm [4] | percent control (mortality, anti-feedant effect or growth inhibition) at 200 ppm [5] | percent control (mortality, anti-feedant effect or growth inhibition) at 200 ppm [2] | percent control (mortality or growth inhibition) at 200 ppm [3]

CC(NC(=O)c1cc(OCC(F)(F)F)cc(C(F)(F)F)c1)c1nccnc1-n1nccn1 (stereo not drawn) [Compound P8, N-[1-[3-(triazol-2-yl)pyrazin-2-yl]ethyl]-3-(2,2,2-trifluoroethoxy)-5-(trifluoromethyl)benzamide]
≥ 80%: percent control (mortality or growth inhibition) at 200 ppm [4] | percent control (mortality, anti-feedant effect or growth inhibition) at 200 ppm [5] | percent control (mortality, anti-feedant effect or growth inhibition) at 200 ppm [2] | percent control (mortality or growth inhibition) at 200 ppm [3]

Cc1cnc(C(C)NC(=O)c2cc(C(F)(F)F)cc(C(F)(F)F)c2)c(-n2nccn2)n1 (stereo not drawn) [Compound P18, N-[1-[5-methyl-3-(triazol-2-yl)pyrazin-2-yl]ethyl]-3,5-bis(trifluoromethyl)benzamide]
≥ 80%: percent control (mortality, anti-feedant effect or growth inhibition) at 200 ppm [2] | percent control (mortality or growth inhibition) at 200 ppm [3]

Cc1cc(C)cc(C(=O)NC(C)c2nccnc2-n2nccn2)c1 (stereo not drawn) [Compound P24, 3,5-dimethyl-N-[1-[3-(triazol-2-yl)pyrazin-2-yl]ethyl]benzamide]
≥ 80%: mortality at 500 ppm [1]

CC(NC(=O)c1cc(F)cc(Cl)c1)c1nccnc1-n1nccn1 (stereo not drawn) [Compound P25, 3-chloro-5-fluoro-N-[1-[3-(triazol-2-yl)pyrazin-2-yl]ethyl]benzamide]
≥ 80%: mortality at 500 ppm [1] | percent control (mortality or growth inhibition) at 200 ppm [4] | percent control (mortality or growth inhibition) at 200 ppm [3]

COc1cc(C(=O)NC(C)c2nccnc2-n2nccn2)cc(Cl)n1 (stereo not drawn) [Compound P32, 2-chloro-6-methoxy-N-[1-[3-(triazol-2-yl)pyrazin-2-yl]ethyl]pyridine-4-carboxamide]
≥ 80%: mortality at 500 ppm [1]

Cc1cn(-c2nccnc2C(C)NC(=O)c2cc(C(F)(F)F)cc(C(F)(F)F)c2)nn1 (stereo not drawn) [Compound P41, N-[1-[3-(4-methyltriazol-1-yl)pyrazin-2-yl]ethyl]-3,5-bis(trifluoromethyl)benzamide]
≥ 80%: mortality at 500 ppm [1] | percent control (mortality, anti-feedant effect or growth inhibition) at 200 ppm [5] | percent control (mortality, anti-feedant effect or growth inhibition) at 200 ppm [2] | percent control (mortality or growth inhibition) at 200 ppm [3]

CC(NC(=O)c1cc(C(F)(F)F)cc(C(F)(F)F)c1)c1nccnc1-n1cc(C2CC2)nn1 (stereo not drawn) [Compound P42, N-[1-[3-(4-cyclopropyltriazol-1-yl)pyrazin-2-yl]ethyl]-3,5-bis(trifluoromethyl)benzamide]
≥ 80%: mortality at 500 ppm [1] | percent control (mortality, anti-feedant effect or growth inhibition) at 200 ppm [5] | percent control (mortality, anti-feedant effect or growth inhibition) at 200 ppm [2] | percent control (mortality or growth inhibition) at 200 ppm [3]

CC(NC(=O)c1cc(C(F)(F)F)cc(C(F)(F)F)c1)c1nccnc1-n1ccnn1 (stereo not drawn) [Compound P44, N-[1-[3-(triazol-1-yl)pyrazin-2-yl]ethyl]-3,5-bis(trifluoromethyl)benzamide]
≥ 80%: percent control (mortality or growth inhibition) at 200 ppm [4] | percent control (mortality, anti-feedant effect or growth inhibition) at 200 ppm [5] | percent control (mortality, anti-feedant effect or growth inhibition) at 200 ppm [2] | percent control (mortality or growth inhibition) at 200 ppm [3]

CC(NC(=O)c1cc(C(F)(F)F)cc(C(F)(F)F)c1)c1nccnc1-n1cccn1 (stereo not drawn) [Compound P45]
≥ 80%: percent control (mortality or growth inhibition) at 200 ppm [4]

CC(NC(=O)c1cc(C(F)(F)F)cc(C(F)(F)F)c1)c1nccnc1-n1cc(C#N)cn1 (stereo not drawn) [Compound P47, N-[1-[3-(4-cyanopyrazol-1-yl)pyrazin-2-yl]ethyl]-3,5-bis(trifluoromethyl)benzamide]
≥ 80%: percent control (mortality or growth inhibition) at 200 ppm [4] | percent control (mortality, anti-feedant effect or growth inhibition) at 200 ppm [5] | percent control (mortality, anti-feedant effect or growth inhibition) at 200 ppm [2] | percent control (mortality or growth inhibition) at 200 ppm [3]

CC(c1nccnc1-n1cncn1)N(CC1CC1)C(=O)c1cc(C(F)(F)F)cc(C(F)(F)F)c1 (stereo not drawn) [Compound P48, N-(cyclopropylmethyl)-N-[1-[3-(1,2,4-triazol-1-yl)pyrazin-2-yl]ethyl]-3,5-bis(trifluoromethyl)benzamide]
≥ 80%: mortality at 500 ppm [1] | percent control (mortality or growth inhibition) at 200 ppm [4] | percent control (mortality, anti-feedant effect or growth inhibition) at 200 ppm [5] | percent control (mortality or growth inhibition) at 200 ppm [3]

CC(c1nccnc1-n1nccn1)N(CC1CC1)C(=O)c1cc(C(F)(F)F)cc(C(F)(F)F)c1 (stereo not drawn) [Compound P50, N-(cyclopropylmethyl)-N-[1-[3-(triazol-2-yl)pyrazin-2-yl]ethyl]-3,5-bis(trifluoromethyl)benzamide]
≥ 80%: mortality at 500 ppm [1] | percent control (mortality or growth inhibition) at 200 ppm [4] | percent control (mortality, anti-feedant effect or growth inhibition) at 200 ppm [5] | percent control (mortality or growth inhibition) at 200 ppm [3]

CC(NC(=O)c1cc(C(F)(F)F)cc(C(F)(F)F)c1)c1nccnc1-n1nnc2ccccc21 (stereo not drawn) [Compound P51, N-[1-[3-(benzotriazol-1-yl)pyrazin-2-yl]ethyl]-3,5-bis(trifluoromethyl)benzamide]
≥ 80%: mortality at 500 ppm [1] | percent control (mortality or growth inhibition) at 200 ppm [3]

CC(NC(=O)c1cc(C(F)(F)F)cc(C(F)(F)F)c1)c1nccnc1-n1ncc(I)n1 (stereo not drawn) [Compound P53, N-[1-[3-(4-iodotriazol-2-yl)pyrazin-2-yl]ethyl]-3,5-bis(trifluoromethyl)benzamide]
≥ 80%: percent control (mortality or growth inhibition) at 200 ppm [4] | percent control (mortality, anti-feedant effect or growth inhibition) at 200 ppm [5] | percent control (mortality, anti-feedant effect or growth inhibition) at 200 ppm [2] | percent control (mortality or growth inhibition) at 200 ppm [3]

CO/N=C(\C)c1cnn(-c2nccnc2C(C)NC(=O)c2cc(C(F)(F)F)cc(C(F)(F)F)c2)n1 (stereo not drawn) [Compound P54, N-[1-[3-[4-[(E)-N-methoxy-C-methyl-carbonimidoyl]triazol-2-yl]pyrazin-2-yl]ethyl]-3,5-bis(trifluoromethyl)benzamide]
≥ 80%: percent control (mortality or growth inhibition) at 200 ppm [4] | percent control (mortality, anti-feedant effect or growth inhibition) at 200 ppm [5] | percent control (mortality or growth inhibition) at 200 ppm [3]

CC(=O)c1cn(-c2nccnc2C(C)NC(=O)c2cc(C(F)(F)F)cc(C(F)(F)F)c2)nn1 (stereo not drawn) [Compound P55, N-[1-[3-(4-acetyltriazol-1-yl)pyrazin-2-yl]ethyl]3,5-bis(trifluoromethyl)benzamide]
≥ 80%: percent control (mortality, anti-feedant effect or growth inhibition) at 200 ppm [2] | percent control (mortality or growth inhibition) at 200 ppm [3]

CC(=O)c1cnn(-c2nccnc2C(C)NC(=O)c2cc(C(F)(F)F)cc(C(F)(F)F)c2)n1 (stereo not drawn) [Compound P57, N-[1-[3-(4-acetyltriazol-2-yl)pyrazin-2-yl]ethyl]-3,5-bis(trifluoromethyl)benzamide]
≥ 80%: percent control (mortality, anti-feedant effect or growth inhibition) at 200 ppm [2] | percent control (mortality or growth inhibition) at 200 ppm [3]
